Laboratory results reported in patent EP0173944A2, “Enhanced inhibition of yeast cell growth” (MILES INC., priority 1984, dated 1986).
Like-named read-outs stand apart in the source and are kept apart here. *1 amine or outer side, *2 acyl side, *3 side chain or, on linkers, in order; H or OH if unused. Where a SMILES comes first, the peptide text is derived from it. Bridges are numbered along the chain shown (N, C = ends). Roman numbers before positions name the chains, in order. [ ]: non-standard residue; d: D form. Actinocin(9to1) = Cc1c2oc3c(C)ccc(C(=O)[*:1])c3nc-2c(C(=O)[*:2])c(N)c1=O; NMeV = CN[C@H](C(=O)O)C(C)C; Sar = CNCC(=O)O

Tests used:
[1] = system: Saccharomyces cerevisiae strain S288C; test: Filter disc zone-of-inhibition test of yeast growth with or without PBN in the agar overlay; format: cell-based; conditions: for inhibition of yeast growth in relation to the carbon source: glycerol or glucose as the carbon source; for Area of Zone of Inhibition, Control / effect on yeast growth, control sample: no PBN; for Area of Zone of Inhibition, Control / Area of Zone of Inhibition, PBN (4.8 A260 units): 30°C, 48 hours; for Area of Zone of Inhibition, PBN (4.8 A260 units): with PBN 4.8 A260 units; for Area of Zone of Inhibition: rifampicin 2.5 mg/disc; for effect on yeast growth, control sample / effect on yeast growth, PBN-containing sample: kanamycin 5.0, streptomycin 2.5, chloramphenicol 0.25 mg/disc, data not shown in Table 1; for effect on yeast growth, PBN-containing sample: with PBN
Method: (§1) A convenient method for ascertaining the inhibition of growth of yeast cells is as follows. A sample of yeast cells (about 10 7 cells) from a viable overnight culture is added to a molten agar-containing growth medium to which has been added the desired amount of PBN. The resulting suspension is mixed rapidly and then poured onto an agar plate containing a suitable growth medium. The molten agar is allowed to solidify and sterile filter discs are placed on the surface. The solution of antibiotics to be tested are then pipetted onto the discs (50 microliters per disc). The plates are incubated and "read" for antibiotic sensitivity as determined by the zone of inhibition around the disc.
(§2) Saccharomyces cerevisiae strain S288C was grown for 16 hours at 30°C in a liquid medium consisting of 1% (w/v) yeast extract, 2% (w/v) peptone, and 2% (w/v) glucose (YPD medium). One drop of cell suspension from this culture (about 5 x 10^6 to about 1 X 10 ^7 cells) was added to each of 2 tubes containing 3 ml of 0.7% agar, 1% yeast extract, 2% peptone, 2% glycerol (or alternatively 2% glucose as a carbon source) and 0.25 ml of 5 M NaCl maintained at 45-50°C to prevent the agar from solidifying. One tube contained., in addition to the above, 0.5 ml of PBN solution (4.8 A260 units) prepared as described above. The other tube served as a control. The tube contents were mixed rapidly and poured onto a Petri plate containing 25 ml of 2% agar, 1% yeast extract, 2% peptone, and 2% glycerol (YPG medium). After the agar had solidified, sterile filter disks (0.5 inch diameter) were placed on the surface of the agar and solutions of various antibiotics to be tested were pipetted onto the disks. The plates were incubated at 30°C for 48 hours and the inhibition of growth was determined by measuring the area of a zone of clearing formed around the discs (minus the area of the disc).
The procedure described in Example I was repeated with Saccharomyces cerevisiae strain S288C except that increasing amounts of PBN were used. The rifampicin concentration on the discs was maintained at 2.5 mg/disc throughout.

[2] = system: Candida albicans (ATCC 10231); test: as above; format: cell-based
Method: as §1, §2
The procedure described in Example I was repeated with Candida albicans (ATCC 10231). Inhibition of growth of this organism by G-418, rifampicin, cycloheximide and actinomycin D in the presence and absence (control) of PBN was determined.

[3] = YPD medium used for plating, 0.5 mg/disk in dimethylsulfoxide
[4] = no PBN, G-418 5.0, rifampicin 2.5, cycloheximide 0.5, actinomycin D 0.5 mg/disk
[5] = with PBN 3.0 A260 units per plate in YPD medium, G-418 5.0, rifampicin 2.5, cycloheximide 0.5, actinomycin D 0.5 mg/disk
[6] = YPG medium, erythromycin 0.5, G-418 5.0, rifampicin 2.5 mg/disk

Compound | inhibition of yeast growth in relation to the carbon source [1] | Area of Zone of Inhibition, Control [2, 4] | Area of Zone of Inhibition, PBN [2, 5] | Area of Zone of Inhibition, Control [1, 6] | Area of Zone of Inhibition, PBN (4.8 A260 units) [1, 6] | effect on yeast growth, control sample [1] | effect on yeast growth, PBN-containing sample [1] | other results
Cc1c2oc3c(C)ccc(C(=O)N[C@@H]4C(=O)N[C@H](C(C)C)C(=O)N5CCC[C@H]5C(=O)N(C)CC(=O)N(C)[C@@H](C(C)C)C(=O)O[C@@H]4C)c3nc-2c(C(=O)N[C@@H]2C(=O)N[C@H](C(C)C)C(=O)N3CCC[C@H]3C(=O)N(C)CC(=O)N(C)[C@@H](C(C)C)C(=O)O[C@@H]2C)c(N)c1=O [Actinomycin D] (I: T[dV]P[Sar][NMeV] / II: T[dV]P[Sar][NMeV]; ester I:1-I:C, II:1-II:C; linker I:N-II:N via Actinocin(9to1)) | exhibited inhibition of yeast growth regardless of the carbon source | <3 mm^2 | 452 mm^2 |  |  |  |  | Area of Zone of Inhibition, Control [1, 3]: <3 mm^2; Area of Zone of Inhibition, PBN (4.8 A260 units) [1, 3]: 314 mm^2
C[C@@H]1C[C@@H]([C@H](O)CC2CC(=O)NC(=O)C2)C(=O)[C@@H](C)C1 [Cycloheximide] |  |  |  |  |  |  |  | Area of Zone of Inhibition, Control [2]: <3 mm^2; Area of Zone of Inhibition, PBN [2]: 64 mm^2
CC[C@H]1OC(=O)[C@H](C)[C@@H](O[C@H]2C[C@@](C)(OC)[C@@H](O)[C@H](C)O2)[C@H](C)[C@@H](O[C@@H]2O[C@H](C)C[C@H](N(C)C)[C@H]2O)[C@](C)(O)C[C@@H](C)C(=O)[C@H](C)[C@@H](O)[C@]1(C)O [Erythromycin] | effective in this test system only when glycerol (rather than glucose) is used as the carbon source |  |  | 80 mm^2 | 227 mm^2 |  |  | 
CN[C@@H]1[C@@H](O)[C@@H](O[C@@H]2[C@@H](O)[C@H](O[C@H]3O[C@H]([C@@H](C)O)[C@@H](O)[C@H](O)[C@H]3N)[C@@H](N)C[C@H]2N)OC[C@]1(C)O [G-418] | exhibited inhibition of yeast growth regardless of the carbon source | 20 mm^2 | 346 mm^2 | 113 mm^2 | 490 mm^2 |  |  | 
CO[C@H]1/C=C/O[C@@]2(C)Oc3c(C)c(O)c4c(O)c(c(/C=N/N5CCN(C)CC5)c(O)c4c3C2=O)NC(=O)/C(C)=C\C=C\[C@H](C)[C@H](O)[C@@H](C)[C@@H](O)[C@@H](C)[C@H](OC(C)=O)[C@@H]1C [Rifampicin] |  | <3 mm^2 | 3 mm^2 | <3 mm^2 | 95 mm^2 |  |  | Area of Zone of Inhibition ([1]; PBN 0.0 A260 units): 0 mm^2; Area of Zone of Inhibition ([1]; PBN 1.0 A260 units): 3.0 mm^2; Area of Zone of Inhibition ([1]; PBN 2.0 A260 units): 20.0 mm^2; Area of Zone of Inhibition ([1]; PBN 3.0 A260 units): 38.5 mm^2; Area of Zone of Inhibition ([1]; PBN 4.0 A260 units): 38.5 mm^2; Area of Zone of Inhibition ([1]; PBN 5.0 A260 units): 50.0 mm^2; Area of Zone of Inhibition ([1]; PBN 6.0 A260 units): 64.0 mm^2; Area of Zone of Inhibition ([1]; PBN 7.0 A260 units): 78.5 mm^2; Area of Zone of Inhibition ([1]; PBN 8.0 A260 units): 71.0 mm^2; Area of Zone of Inhibition ([1]; PBN 9.0 A260 units): 78.5 mm^2; Area of Zone of Inhibition ([1]; PBN 10.0 A260 units): 95.0 mm^2
O=C(N[C@H](CO)[C@H](O)c1ccc([N+](=O)[O-])cc1)C(Cl)Cl [chloramphenicol] |  |  |  |  |  | no effect | no effect | 
NC[C@H]1O[C@H](O[C@H]2[C@H](O)[C@@H](O[C@H]3O[C@H](CO)[C@@H](O)[C@H](N)[C@H]3O)[C@H](N)C[C@@H]2N)[C@H](O)[C@@H](O)[C@@H]1O [kanamycin] |  |  |  |  |  | no effect | no effect | 
[H]/N=C(/N)N[C@H]1[C@H](O)[C@@H](O)[C@H](O[C@@H]2O[C@@H](C)[C@](O)(C=O)[C@H]2O[C@@H]2O[C@@H](CO)[C@H](O)[C@@H](O)[C@@H]2NC)[C@@H](N/C(N)=N\[H])[C@@H]1O [streptomycin] |  |  |  |  |  | no effect | no effect | 
